Where two headings read alike, the source gives them in different places.

In one data set the test system is audiogenic seizures. The data set is described as follows: audiogenic seizures in Frings audiogenic seizure susceptible mice. In kind it is in vivo. The note with it: for potency compared with VPA in audiogenic seizure model: in words. The protocol:
In mice the compounds were tested for their ability to protect against audiogenic seizures in the Frings audiogenic seizure susceptible mice after ip administration. This model is considered as a good screening model in pharmacologic studies for CNS active compounds.

Data set [1] has as its system maximal electroshock seizure (MES). Briefly: maximal electroshock seizure test (MES). The class given is in vivo. To be noted: rats; for anticonvulsant activity in the MES test: result in words; for ED50: Rattus norvegicus. From the text:
(§1) The first model the maximal electroshock seizure test (MES), is used to show efficacy for antiepileptic agents against partial and generalized seizure type epilepsy, the common epilepsy among therapy resistant epileptic patients. The second model, the subcutaneous pentylenetetrazole test (s.c. Met) which measures seizure threshold and is a standard screening procedure to show efficacy for agents against […] seizures. In these studies, convulsions were inhibited or prevented after oral (p.o.) and intraperitoneal (ip) administration of the compounds.

The nature of data set [2]: Neurotoxicity, Gait and Stance test. The protocol:
Neurotoxicity of the agents was assessed in rats (p.o. and ip administration) in the Gait and Stance test and in mice in the Rotarod Ataxia test, which assess minimal neurotoxicity.

For data set [3], the system named is subcutaneous pentylenetetrazole induced convulsions (seizure threshold). Briefly: subcutaneous pentylenetetrazole test (s.c. Met). In kind it is in vivo. To be noted: rats, table title: oral administration; for ED50: Rattus norvegicus, read-out: sc Met ED50.
Excerpt: as §1

The test system of a further data set is 6 Hz psychomotor seizure. Briefly: 6 Hz psychomotor seizure model. The class given is in vivo. The note with it: Mus musculus; mice ip, stimulation intensity 22 mA.
Data set [4] can be described thus: Pharmacokinetics in mongrel dogs. The class given is in vivo. The protocol: The pharmacokinetics of Compound A were evaluated in mongrel dogs.
Where [5] appears, read: po, p.o. administration, read-out: MES ED50 (mg/kg po).

Regarding `CCCC(CCC)C(=O)NCCS(=O)(=O)N(C)C` [B, N-(2-Propylpentanoyl)taurine-N′,N′-dimethylamide], in the data set with audiogenic seizures (ip administration), the “Audiogenic seizures ED50” value came to 134 mg/kg. Besides, the “potency compared with VPA in audiogenic seizure model” value with audiogenic seizures (ip) is “more potent than VPA”. Moreover, the “MES ED50 (mg/kg ip)” value in data set [1] (ip administration) was determined as 50 mg/kg. Besides, the “MES ED50 (mg/kg po)” value in data set [1] (p.o. administration) is >160 mg/kg. In addition, in data set [1], the “anticonvulsant activity in the MES test” value was “showed anticonvulsant activity”. The “Neurotoxicity TD50 (mg/kg ip)” value in data set [2] (rats, ip administration) stood at 175 mg/kg. The “TD50 compared with VPA” value in data set [2] (rats, in words) is “significantly higher than TD50 for VPA”. In data set [3], the “sc Met ED50” value is >200 mg/kg.

For `CCCC(CCC)C(=O)NCCS(=O)(=O)NC(C)C` [C, N-(2-Propylpentanoyl)taurine-N′-isopropylamide], the “Audiogenic seizures ED50” value in the data set with audiogenic seizures (ip administration) is listed as 126 mg/kg. Moreover, the “potency compared with VPA in audiogenic seizure model” value with audiogenic seizures (ip) was “more potent than VPA”. Further, the “MES ED50 (mg/kg ip)” value in data set [1] (ip administration) amounted to 52 mg/kg. The “MES ED50 (mg/kg po)” value in data set [1] (p.o. administration) came to 63 mg/kg. Besides, the “anticonvulsant activity in the MES test” value in data set [1] was “showed anticonvulsant activity”. In data set [2] (rats, ip administration), the “Neurotoxicity TD50 (mg/kg ip)” value stood at 627 mg/kg. Further, the “TD50 compared with VPA” value in data set [2] (rats, in words) is given as “significantly higher than TD50 for VPA”. Besides, the “sc Met ED50” value in data set [3] is given as >250 mg/kg.

The term half-life denotes how long it takes for the measured level to halve. Low readings indicate rapid decline, high ones slow decline. For orientation: clearance means the rate of elimination divided by the concentration. For `CCCC(CCC)C(=O)NCCS(N)(=O)=O` [Compound A, N-(2-Propylpentanoyl)taurinamide], the ED50 with 6 Hz psychomotor seizure was 188 mg/kg; with audiogenic seizures (Mus musculus, ip, ip administration), 50 to 140 mg/kg; in data set [1] (setting [5]), 65 mg/kg; in data set [1] (ip administration, read-out: MES ED50 (mg/kg ip)) it was 50 mg/kg; in data set [3], > 250 mg/kg. Besides, the “Audiogenic seizures ED50” value with audiogenic seizures (ip administration) came out at 51 mg/kg. Besides, the “audiogenic seizure ED50 compared with VPA” value with audiogenic seizures (ip, relative to VPA) turned out to be 3 times lower. Besides, in data set [4] (dog, in vivo), the half-life was 5.6 h. In addition, the Vd in data set [4] (dog, in vivo, read-out: Volume of distribution at steady state (Vss)) came to 0.84 L/kg. Further, in data set [4] (dog, in vivo, read-out: total body clearance (CL) (converted)), the clearance was 1.83 mL/min/kg. Also, the liver extraction ratio result in data set [4] (in words) is recorded as “low”. Further, the “anticonvulsant activity in the MES test” value in data set [1] is recorded as “showed anticonvulsant activity”. Further, the “TD50 compared with VPA” value in data set [2] (rat, in vivo) was “significantly higher than TD50 for VPA”. In addition, in data set [2] (rat, in vivo, ip), the “Neurotoxicity TD50 (mg/kg ip)” value is >300 mg/kg. Further, the TD50 in data set [2] (rat, in vivo, ip) was > 300 mg/kg; in data set [2] (rat, in vivo, po), > 500 mg/kg. The “Neurotoxicity TD50 (mg/kg po)” value in data set [2] (rat, in vivo, po) was >500 mg/kg.

As to `CCCC(CCC)C(=O)NCCS(=O)(=O)N(CC)CC` [N-(2-n-propylpentanoyl)taurine-N′,N′-diethylamide], the “anticonvulsant activity in the MES test” value in data set [1] is listed as “showed anticonvulsant activity”.

In the case of `CCCC(CCC)C(=O)NCCS(=O)(=O)NCC` [N-(2-n-propylpentanoyl)taurine-N′-ethylamide], the “anticonvulsant activity in the MES test” value in data set [1] is “showed anticonvulsant activity”.

For `CCCC(CCC)C(=O)NCCS(=O)(=O)NC` [N-(2-n-propylpentanoyl)taurine-N′-methylamide], the “anticonvulsant activity in the MES test” value in data set [1] is reported as “showed anticonvulsant activity”.

As to `CCCC(CCC)C(=O)O` [VPA, valproic acid, reference compound], the ED50 in data set [1] (setting [5]) turned out to be 490 mg/kg; in data set [3], 180 mg/kg. For the same compound, the TD50 in data set [2] (rat, in vivo, po) was determined as 200 mg/kg.

The values are drawn from patent US6958416B2, “Valproyltaurinamide derivatives as anticonvulsant amd CNS active agents” (Yissum Research Development Company of the Hebrew …, priority 2001, dated 2005).
